Experiments:
[1] = target: T1, SERCA2a (cardiac SR vesicles) (Sus scrofa, UniProt P11607); assay: Oxalate-supported Ca2+-uptake assay, cardiac SR (CRC at pCa 5.4); type: biochemical, porcine; conditions: n = 3; for Cardiac SR Ca^2+ Uptake Activity Percent Increase: maximal effect of CRC; for Cardiac SR Ca^2+ Uptake Activity Percent Increase / EC50: pCa 5.4, mean ± SD, dash = no observable effect; for EC50: read-out: Cardiac SR Ca^2+ Uptake Activity EC50
T1 construct: Cardiac SR vesicles were isolated from fresh porcine left ventricular tissue; from tissue; host or cells: porcine left ventricular tissue, cardiac SR vesicles
Experimental: (§1) For skeletal SR, rabbit muscles were freshly harvested from the back and hind leg of New Zealand White rabbits and purified using a sucrose gradient. The resulting light skeletal SR contains 80% SERCA, as a proportion of total protein content. Cardiac SR vesicles were isolated from fresh porcine left ventricular tissue.
(§2) To determine compound effect on the Ca^2+-uptake activity of SERCA1a and SERCA2a, we used an oxalate-supported assay. A solution containing 50 mM MOPS (pH 7.0), 100 mM KCl, 30 mg/mL sucrose, 1 mM EGTA, 10 mM potassium oxalate, 2 µM Fluo-4, 30 µg/mL cardiac SR vesicles or 12 μg/mL skeletal SR vesicles, and CaCl2 calculated to reach the desired free [Ca^2+] was dispensed into 384-well black walled, transparent bottomed plates (Greiner Bio-One) containing the tested small molecule and incubated at 21 °C for 20 min while covered and protected from light. To start the reaction, MgATP was added to a final concentration of 5 mM, and the decrease in 485-nm excited fluorescence was monitored at 520 nm for 15 min using a FLIPR Tetra (Molecular Devices, San Jose, CA, USA).
To determine whether the observed increases in SERCA2a ATPase activity translate to Ca^2+ uptake function, we applied our Ca^2+ transport assay to test our selected Hit compounds in cardiac SR (Table 1). Indeed, 16 of the 19 compounds yielded a clear increase in Ca^2+ uptake activity. In fact, eight compounds generated an increase at least 50% greater in cardiac SR than in skeletal SR. Three compounds had either an inhibitory or no effect on Ca^2+ transport, and two of these were also non-activating compounds in skeletal SR.

[2] = target: T2, SERCA1a (rabbit light skeletal SR vesicles) (Oryctolagus cuniculus, UniProt P04191); assay: NADH-coupled Ca-ATPase activity assay, skeletal SR (CRC at pCa 5.4); type: biochemical; conditions: n = 3; for Skeletal SR ATPase Activity Percent Increase: maximal effect of CRC 0.05 to 50 µM, pCa 5.4, relative to DMSO, mean ± SD; for EC50: pCa 5.4, mean ± SD
T2 construct: rabbit muscles were freshly harvested from the back and hind leg of New Zealand White rabbits and purified using a sucrose gradient; from tissue; host or cells: rabbit (New Zealand White) back and hind leg skeletal muscle, light SR vesicles
Experimental: as §1
(§3) Functional assays were performed using rabbit light skeletal sarcoplasmic (SR) vesicles. For high-throughput NADH-coupled screening, assay mix containing a final concentration of 50 mM MOPS (pH 7.0), 100 mM KCl, 1 mM EGTA, 0.2 mM NADH, 1 mM phosphoenol pyruvate, 10 IU/mL of pyruvate kinase, 10 IU/mL of lactate dehydrogenase, 1 µM of the calcium ionophore A23187, 4 µg/mL skeletal SR, and added CaCl2 to obtain pCa 5.4 was dispensed into 384-well DIVERSet assay plates containing 50 nL of compound or DMSO using a FlexDrop Precision liquid dispenser (Perkin Elmer, Waltham, Massachusetts). Plates were sealed, covered from light, and incubated at room temperature for 20 min. The assay was then started by dispensing MgATP (termed “initiation mix”), to a final concentration of 5 mM in each well (80 µL total assay volume) with the FlexDrop liquid dispenser (Perkin Elmer). The time dependence of absorbance was measured at 340 nm in a SpectraMax Plus384 microplate spectrophotometer (Molecular Devices, Sunnyvale, CA). For follow-up concentration response curves of Hit compounds, 400 nL of either compound or DMSO was dispensed into each well using an Echo liquid dispenser (Beckman Coulter). Testing dose-dependent compound effects on rabbit skeletal SR vesicles was done using the same method, as described above in 384-well plates. Determining compound effects on cardiac SR vesicles was done in a similar method as above, with the exception of 10 µg/mL of cardiac SR incubated in assay mix consisting of a final concentration of 50 mM MOPS (pH 7.0), 100 mM KCl, 1 mM EGTA, 1 µM of the calcium ionophore A23187, and added CaCl2 to the desired free calcium values. After a 20 min incubation, the “initiation mix”, containing a final concentration of 0.2 mM NADH, 1 mM phosphoenol pyruvate, 10 IU/mL of pyruvate kinase, 10 IU/mL of lactate dehydrogenase, and 5mM MgATP, was dispensed into each well.
The initial screen assay was performed with compounds at 10 µM. To better study the selected Hit compounds for their activation potential, we performed ATPase analyses (in triplicate) over a range of Hit concentrations (0.05 to 50 µM), generating concentration-response curves (CRCs) to determine maximal effects and EC50 (Figure 2). We used the same Ca^2+ concentration (pCa 5.4) as in the screening assays, thus focusing on the effects on the maximal velocity of SERCA. Two of the selected Hits yielded no response in follow-up assays, probably due to a mismatch in chemical composition between the library compound and the subsequently ordered compound (DS95401435 and DS41547941). This type of discrepancy is a typical hurdle in the screening process. Each of the other 19 compounds produced a substantial increase in ATPase activity, ranging from 30% to 72% (Table 1 and Supporting Information, Figure S1), as expected due to similarity of the CRC assay to the initial screen.

[3] = target: T1, SERCA2a (cardiac SR vesicles); assay: NADH-coupled Ca-ATPase activity assay, cardiac SR (CRC at pCa 5.4); type: biochemical, porcine; conditions: pCa 5.4, mean ± SD, n = 3; for Cardiac SR ATPase Activity Percent Increase: maximal effect of CRC
Experimental: as §1, §3
While initial screening was performed in skeletal SR enriched with the SERCA1a isoform, high sequence and structural homology with the cardiac SERCA2a isoform predicts a potential for cross reactivity of the Hit compounds. To test this hypothesis, we performed ATPase analyses with cardiac SR microsomes, which are enriched for SERCA2a.

[4] = target: T3, SERCA1a (skeletal SR vesicles) (Oryctolagus cuniculus, UniProt P04191); assay: Oxalate-supported Ca2+-uptake assay, skeletal SR (CRC at pCa 5.4); type: biochemical, rabbit; conditions: for Skeletal SR Ca^2+ Uptake Activity Percent Increase: maximal effect of CRC; for Skeletal SR Ca^2+ Uptake Activity Percent Increase / EC50: pCa 5.4, mean ± SD, n = 3, dash = no observable effect; for EC50: read-out: Skeletal SR Ca^2+ Uptake Activity EC50
T3 construct: rabbit muscles were freshly harvested from the back and hind leg of New Zealand White rabbits and purified using a sucrose gradient; from tissue; host or cells: rabbit (New Zealand White) back and hind leg skeletal muscle, light SR vesicles
Experimental: as §1, §2
While Ca^2+-dependent ATPase activity is a direct measure of SERCA activity, coupling of ATP hydrolysis to transport of Ca^2+ across the SR membrane is essential for the role of SERCA in cellular physiology. Therefore, we next asked whether our ATPase-based HTS assay could successfully identify compounds that also increase Ca^2+ uptake of SERCA.

T2 sequence (P04191 1-994 isoform P04191-2): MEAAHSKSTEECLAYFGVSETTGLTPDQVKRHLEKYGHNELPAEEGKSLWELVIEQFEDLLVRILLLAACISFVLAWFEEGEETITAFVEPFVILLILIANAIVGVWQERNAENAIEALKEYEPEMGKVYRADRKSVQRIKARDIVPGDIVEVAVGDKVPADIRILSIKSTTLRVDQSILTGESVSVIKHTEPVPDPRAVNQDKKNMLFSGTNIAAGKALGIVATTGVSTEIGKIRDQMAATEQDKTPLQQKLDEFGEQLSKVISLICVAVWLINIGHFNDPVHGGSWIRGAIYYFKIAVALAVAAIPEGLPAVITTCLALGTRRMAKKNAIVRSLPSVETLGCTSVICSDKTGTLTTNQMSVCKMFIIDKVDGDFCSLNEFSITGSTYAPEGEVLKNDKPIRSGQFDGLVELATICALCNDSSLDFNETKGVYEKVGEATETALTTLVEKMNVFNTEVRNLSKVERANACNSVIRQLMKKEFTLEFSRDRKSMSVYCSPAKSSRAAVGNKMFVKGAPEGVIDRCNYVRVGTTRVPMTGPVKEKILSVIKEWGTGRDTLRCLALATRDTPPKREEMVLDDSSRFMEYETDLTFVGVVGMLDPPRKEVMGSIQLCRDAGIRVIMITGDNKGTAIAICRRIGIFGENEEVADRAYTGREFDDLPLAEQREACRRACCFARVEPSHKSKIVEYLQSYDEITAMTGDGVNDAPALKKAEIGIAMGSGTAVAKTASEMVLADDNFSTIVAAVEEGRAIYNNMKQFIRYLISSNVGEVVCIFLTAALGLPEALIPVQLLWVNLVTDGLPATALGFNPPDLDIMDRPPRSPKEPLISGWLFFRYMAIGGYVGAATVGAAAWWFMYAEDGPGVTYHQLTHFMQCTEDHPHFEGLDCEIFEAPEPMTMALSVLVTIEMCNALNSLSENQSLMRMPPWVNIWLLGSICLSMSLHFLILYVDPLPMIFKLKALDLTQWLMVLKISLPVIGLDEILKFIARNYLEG
T3 sequence (P04191 1-994 isoform P04191-2): as above
T1 sequence (P11607 1-997 isoform P11607-2): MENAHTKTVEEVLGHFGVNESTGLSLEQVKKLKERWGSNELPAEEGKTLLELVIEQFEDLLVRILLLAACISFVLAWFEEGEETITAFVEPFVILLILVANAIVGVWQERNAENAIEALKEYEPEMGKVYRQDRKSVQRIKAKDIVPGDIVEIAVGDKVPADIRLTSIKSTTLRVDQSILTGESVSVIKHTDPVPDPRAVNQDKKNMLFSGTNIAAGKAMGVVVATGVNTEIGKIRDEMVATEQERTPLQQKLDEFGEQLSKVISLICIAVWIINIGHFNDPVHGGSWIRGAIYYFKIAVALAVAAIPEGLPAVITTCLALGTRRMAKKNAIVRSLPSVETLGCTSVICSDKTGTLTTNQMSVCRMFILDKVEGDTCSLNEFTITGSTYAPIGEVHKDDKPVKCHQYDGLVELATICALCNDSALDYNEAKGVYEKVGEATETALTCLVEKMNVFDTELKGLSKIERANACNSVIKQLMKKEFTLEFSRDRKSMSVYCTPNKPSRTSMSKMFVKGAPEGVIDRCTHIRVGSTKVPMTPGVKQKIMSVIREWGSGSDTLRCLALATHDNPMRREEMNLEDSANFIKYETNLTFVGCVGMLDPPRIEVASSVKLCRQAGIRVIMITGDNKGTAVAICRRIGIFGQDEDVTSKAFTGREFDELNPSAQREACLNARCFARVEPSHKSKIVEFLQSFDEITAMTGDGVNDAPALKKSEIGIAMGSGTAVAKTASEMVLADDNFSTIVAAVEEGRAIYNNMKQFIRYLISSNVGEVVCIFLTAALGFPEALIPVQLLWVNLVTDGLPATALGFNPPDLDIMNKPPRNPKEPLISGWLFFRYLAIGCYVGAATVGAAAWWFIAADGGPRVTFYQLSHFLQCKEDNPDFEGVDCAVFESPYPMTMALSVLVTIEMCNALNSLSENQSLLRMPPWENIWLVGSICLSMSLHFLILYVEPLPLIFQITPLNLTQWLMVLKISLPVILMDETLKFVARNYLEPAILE

Structure (SMILES)	Cardiac SR Ca^2+ Uptake Activity Percent Increase [1] [%]	EC50 [1] [µM]	Skeletal SR ATPase Activity Percent Increase [2] [%]	EC50 [2] [µM]	Cardiac SR ATPase Activity Percent Increase [3] [%]	EC50 [3] [µM]	Skeletal SR Ca^2+ Uptake Activity Percent Increase [4] [%]	EC50 [4] [µM]	Compound classification from ATPase vs. Ca^2+ uptake CRCs, cardiac SR [1]	Ca^2+ uptake effect (in words), SR type not given ([4]; uncoupling compounds, cluster 5, tissue not stated)
CCC(C)N(Cc1ccc(C)cc1)Cc1nccs1 (stereo not drawn) [Compound 1]	32 ± 2	37 ± 4	50 ± 25	40 ± 21	42 ± 12	31 ± 10	27 ± 3	28 ± 9		
COc1ncc(CN(Cc2sccc2C)CC(C)C)cn1 [Compound 2]	12 ± 1	1.2 ± 0.2	36 ± 2	4 ± 0.5	33 ± 3	2.9 ± 0.6	15 ± 1	2.2 ± 0.4		
CCCSCC(=O)N(Cc1ccc(C)s1)C1CCCC1 [Compound 3]	37 ± 3	3.5 ± 0.7	54 ± 2	7.3 ± 0.5	48 ± 4	6.7 ± 1	20 ± 1	3.4 ± 0.5	Improved Coupling Compounds	
CCCN(Cc1ccccc1OC)C(=O)c1cc(C)c(C)s1 [Compound 4]	24 ± 1	1.6 ± 0.3	53 ± 2	5.4 ± 0.4	58 ± 4	4.8 ± 0.6	14 ± 2	1.4 ± 0.5		
C=CCN(Cc1ccccc1OCC)C(=O)C1CCC1 [Compound 5]	16 ± 3	1 ± 0.7	41 ± 3	9 ± 1	58 ± 6	7.7 ± 2	10 ± 1	1.4 ± 0.6		
CCCCN(Cc1ccsc1)C(=O)c1occc1C [Compound 6]	17 ± 1	3.8 ± 0.6	45 ± 8	24 ± 6	63 ± 17	29 ± 12	9 ± 1	4 ± 1		
CCOC(=O)C1(CCCc2ccccc2)CCN(C(=O)CC2=CCCCC2)CC1 [Compound 7]	24 ± 3	1.3 ± 0.4	41 ± 3	3.6 ± 0.4	51 ± 3	2.9 ± 0.3	14 ± 2	1.4 ± 0.4	Linked Activating Compounds	
CCc1cccc(NC(=O)CCC(=O)NCc2snnc2C)c1 [Compound 17]			42 ± 4	16 ± 3	62 ± 5	9.4 ± 1				little to no Ca^2+ uptake effect

Reference: article PMC9776381, “A Large-Scale High-Throughput Screen for Modulators of SERCA Activity” (Biomolecules, 2022)
